Experimental findings from patent US3954793A, “1-(2-Propynyl)-1 H-indazole compounds” (priority 1973, dated 1976) are described below.

Molecules are shown by their SMILES.

This test relates to CH strain houseflies. In words: spray application of pyrethrum, percent knockdown as a function of time. The settings on record: pyrethrum 100 + synergist 100 mg/cc. The class given is in vivo. How it is done:
The average percent knockdown of CH strain flies, as a function of time, resulting from spray application of pyrethrum, alone and with synergists, are given in Table XXXXIII. Duplicate tests were performed using 50 CH strain houseflies per test. Test solutions of 100 mg and 200mg of pyrethrum per cc of acetone, 200 mg of synergist per cc of acetone, and a mixture of 100 mg of pyrethrum and 100 mg of synergist per cc of acetone were prepared. The fifty CH strain houseflies were put in a 40 liter spray chamber and 1 cc of the test solution was sprayed into the test chamber with a spray pistol. The synergists alone at 200 mg/cc caused no knockdown.

Turning to `C#CCON=C(C)c1ccc(Cl)cc1` [I-D], the “average percent knockdown, pyrethrum with synergist” value (“average percent knockdown” for short) is on record as 6% (5 minutes); 15% (10 minutes); 26% (15 minutes); 39% (20 minutes); 52% (25 minutes); 60% (30 minutes). Further, the “average percent knockdown” value by setting is: (40 minutes) 86%; (50 minutes) 87%; (60 minutes) 88%.
Take `C#CCON=Cc1ccc(Cl)cc1Cl` [I-G]: the “average percent knockdown” value by setting is: (5 minutes) 7%; (10 minutes) 12%; (15 minutes) 31%; (20 minutes) 36%; (25 minutes) 59%; (30 minutes) 66%. The “average percent knockdown” value runs as follows: (40 minutes) 89%; (50 minutes) 93%; (60 minutes) 94%.
For the compound `C#CCON=Cc1cccc2ccccc12` [I-I], the “average percent knockdown” value runs as follows: (5 minutes) 4%; (10 minutes) 7%; (15 minutes) 19%; (20 minutes) 29%; (25 minutes) 40%; (30 minutes) 49%. Also, the “average percent knockdown” value came to 57% (40 minutes), 86% (50 minutes) and 92% (60 minutes).
Consider `C#CCOCc1c(Cl)ccc(Cl)c1Cl` [II-E], for which the “average percent knockdown” value runs as follows: (5 minutes) 5%; (10 minutes) 9%; (15 minutes) 17%; (20 minutes) 44%; (25 minutes) 55%; (30 minutes) 59%. Moreover, the “average percent knockdown” value reads like this: (40 minutes) 77%; (50 minutes) 93%; (60 minutes) 95%.
